Laboratory results as given in patent publication US12213860B2, “Method for separating mammalian sperm, artificial insemination method, and in vitro fertilization method” (Hiroshima University, priority 2017, dated 2025).

Key:
Assay type in all cases: cell-based
bovine sperm [1] = test: Percentages of X-sperm and Y-sperm in floating bovine sperm by real-time PCR
Method: A frozen bovine semen provided by the Oita Prefectural Agriculture, Forestry and Fisheries Research Center was used. The frozen sperm were melted, and washed with an albumin-free HTF medium. The bovine sperm were incubated in a medium prepared by adding albumin and a TLR7 ligand to HTF at 37° C., 5% CO2 for 1 hour. The TLR7 ligand used was R-848 or imiquimod R-837 (hereinafter referred to as R-837). The content of R-848 was 0 μM, 0.003 μM, 0.03 μM, 0.3 μM, or 3 μM. The content of R-837 was 0.003 μM, 0.03 μM, 0.3 μM, 3 μM, 30 μM, or 300 μM. Then, after collecting the floating sperm in the upper layer and extracting DNA, the percentages of X-sperm and Y-sperm were determined by real-time PCR.

mouse sperm [2] = test: Percentages of X-sperm and Y-sperm in floating mouse sperm by real-time PCR; details: 0.3 μM treatment group
Method: Mouse sperm were incubated in a medium prepared by adding albumin and a TLR7 ligand to an embryo culture medium (HTF) at 37° C., 5% CO2 for 1 hour. The TLR7 ligand used was Resiquimod R-848 (hereinafter referred to as R-848). The content of R-848 was 0 μM, 0.003 μM, 0.03 μM, 0.3 μM, 1.5 μM, or 3 μM. The sperm floating in the upper layer were collected, and DNA was extracted. Then, the percentages of X chromosome-bearing sperm (hereinafter referred to as X-sperm) and Y chromosome-bearing sperm (hereinafter referred to as Y-sperm) were determined by real-time PCR (polymerase chain reaction).

mouse sperm [3] = test: Mouse in vitro fertilization with washed floating sperm; XX/XY chromosomes of embryos; details: floating sperm from 0.3 μM treatment group
Method: The floating sperm in the non-treatment group and 0.3 μM treatment group were washed, and then subjected to in vitro fertilization. The percentage of in vitro fertilization embryo bearing XX chromosomes or XY chromosomes was determined.

bovine sperm [4] = test: Bovine in vitro fertilization with upper layer sperm; fertilization, blastocyst rate and sexing by real-time PCR; details: bovine IVF, upper layer sperm from 0.03 μM R-848 treatment group
Method: Bovine in vitro fertilization was performed using the sperm in the upper layer rich in Y-sperm from the 0.03 μM R-848 treatment group. […] Next, sexing of the blastocyst embryos was performed by real-time PCR.

pig sperm = test: Percentages of X-sperm and Y-sperm in floating pig sperm by real-time PCR; details: R-848 0.3 μM, 2 hours
Method: Pig sperm were incubated in a medium prepared by adding cysteine, glycine, and a TLR7 ligand to the Modena solution at 37° C., 5% CO2, 5% O2 for 2 hours. The TLR7 ligand used was R-848. The content of R-848 was 0 μM or 0.3 μM. After collecting the floating sperm in the upper layer and extracting DNA, the percentages of X-sperm and Y-sperm were determined by real-time PCR.

mouse sperm [5] = test: Separation of mouse sperm by hypergravity load (centrifugation) after TLR7 ligand incubation; X-/Y-sperm percentages in upper and lower layer; details: R-848 0.3 μM; for percentage of X-sperm in the lower layer of the medium: 30% of the lower layer; for percentage of Y-sperm in the upper layer of the medium: 30% of the upper layer
Method: Mouse sperm were incubated in a medium (500 μL) prepared by adding albumin and a TLR7 ligand to an embryo culture medium (HTF) at 37° C., 5% CO2 for 1 hour. The TLR7 ligand used was Resiquimod R-848 (hereinafter referred to as R-848). The content of R-848 was 0.3 μM. After 30 minutes, the media were centrifuged using a centrifuge (product name: Tabletop Micro Refrigerated Centrifuge Model 3520, produced by KUBOTA Corporation Co., Ltd.) at 37° C. for 30 minutes. The centrifugation was at a centrifugal force of 50×g, 100×g, or 500×g. For comparison, a system without centrifugation (0×g) was also prepared. After centrifugation, 150 μL of the upper layer (30% of the upper layer) of each of the media was collected, and the percentages of X-sperm and Y-sperm in each of the media were determined in the same manner as described above. In addition, 150 μL of the lower layer (30% of the lower layer) of each of the media was collected, and the percentages of X-sperm and Y-sperm in each of the media were determined in the same manner as described above.

mouse sperm [6] = test: Mouse in vitro fertilization with upper and lower layer sperm separated at 50×g; 2-cell, blastocyst embryo, XX/XY chromosomes; details: for 2-cell (%), (number of 2-cell/number of eggs)×100 / Blastocyst embryo (%), (number of blastocyst embryos/number of 2-cell)×100 / Blastocyst embryo (number) / XX chromosomes (%) of blastocyst embryos / XX chromosomes (number) of blastocyst embryos / XY chromosomes (%) of blastocyst embryos / XY chromosomes (number) of blastocyst embryos / 2-cell (number), observed cleavages in 24 hours: R-848 0.3 μM, 50×g
Method: Then, the percentages of blastocyst embryos bearing XX chromosomes or XY chromosomes were determined. In addition, a sperm population obtained by incubating in the same medium as described above at 37° C. for 60 minutes without addition of the TLR7 ligand and without centrifugation (non-treatment group) was subjected to in vitro fertilization in the same manner as described above to form a blastocyst embryo. Then, the percentages of blastocyst embryos bearing XX chromosomes or XY chromosomes were determined. In the column “2-cell” in Table 3, “number” represents number of observed cleavages in 24 hours, while “%” represents “(number of 2-cell/number of eggs)×100.” In the column “blastocyst embryo,” “number” represents number of formed blastocyst embryos, while “%” represents “(number of blastocyst embryos/number of 2-cell)×100.”

[7] = centrifugation at 100×g or more

Question: For `CC(C)Cn1cnc2c(N)nc3ccccc3c21` [R-837, imiquimod], which “percentage of Y-sperm in floating sperm” value (bovine sperm [1]; R-837 0.03 to 30 μM treatment groups) is on record?
Answer: ≥ 70%

Question: How did the “percentage of Y-sperm in floating sperm” value (mouse sperm [2]) turn out when `CCOCc1nc2c(N)nc3ccccc3c2n1CC(C)(C)O` [R-848, resiquimod] was run?
Answer: ≥ 80%

Question: What about the “XX chromosomes (%) of in vitro fertilization embryos” value (mouse sperm [3]) of the same molecule?
Answer: 13%

Question: And the “XX chromosomes (Number) of in vitro fertilization embryos” value (mouse sperm [3]; 98 embryos tested)?
Answer: 13

Question: What about the “XY chromosomes (Number) of in vitro fertilization embryos” value (mouse sperm [3]; 98 embryos tested) of the same molecule?
Answer: 85

Question: What about the “percentage of Y-sperm in floating sperm” value (bovine sperm [1]; R-848 0.03 to 0.3 μM treatment groups) of the same molecule?
Answer: ≥ 90%

Question: And the “blastocyst embryo transfer rate” value (bovine sperm [4])?
Answer: 64.3%

Question: What about the fertilization rate (bovine sperm [4]) of the same molecule?
Answer: 71.7%

Question: What about the “male embryos (sexing of blastocyst embryos by real-time PCR)” value (bovine sperm [4]) of the same molecule?
Answer: 87.8%

Question: And the “percentage of Y-sperm in floating sperm” value (pig sperm)?
Answer: ≥ 90%

Question: And the “percentage of X-sperm in the lower layer of the medium” value (mouse sperm [5]; 0×g (without centrifugation))?
Answer: exceeding 60%

Question: And the “percentage of Y-sperm in the upper layer of the medium” value (mouse sperm [5]; 0×g (without centrifugation))?
Answer: exceeding 80%

Question: What about the “percentage of X-sperm in the lower layer of the medium” value (mouse sperm [5]; [7]) of the same molecule?
Answer: below 50%

Question: What about the “percentage of Y-sperm in the upper layer of the medium” value (mouse sperm [5]; [7]) of the same molecule?
Answer: about 60%

Question: And the “effect on the fertilization function of the sperm” value (mouse sperm [6]; centrifugation on sperm incubated in medium supplemented with TLR7 ligand (R-848 0.3 μM, 50×g) vs non-treatment group)?
Answer: no effect

Question: And the “2-cell (%), (number of 2-cell/number of eggs)×100” value (mouse sperm [6]; lower layer group)?
Answer: 70%

Question: And the “Blastocyst embryo (%), (number of blastocyst embryos/number of 2-cell)×100” value (mouse sperm [6]; lower layer group)?
Answer: 70%

Question: What about the “Blastocyst embryo (number)” value (mouse sperm [6]; lower layer group) of the same molecule?
Answer: 48

Question: What about the “XX chromosomes (%) of blastocyst embryos” value (mouse sperm [6]; lower layer group) of the same molecule?
Answer: 81%

Question: What about the “XX chromosomes (number) of blastocyst embryos” value (mouse sperm [6]; lower layer group) of the same molecule?
Answer: 39

Question: And the “XY chromosomes (%) of blastocyst embryos” value (mouse sperm [6]; lower layer group)?
Answer: 19%

Question: And the “XY chromosomes (number) of blastocyst embryos” value (mouse sperm [6]; lower layer group)?
Answer: 9

Question: What about the “2-cell (number), observed cleavages in 24 hours” value (mouse sperm [6]; lower layer group, 99 eggs) of the same molecule?
Answer: 69

Question: And the “2-cell (%), (number of 2-cell/number of eggs)×100” value (mouse sperm [6]; upper layer group)?
Answer: 79%

Question: What about the “Blastocyst embryo (%), (number of blastocyst embryos/number of 2-cell)×100” value (mouse sperm [6]; upper layer group) of the same molecule?
Answer: 73%

Question: And the “Blastocyst embryo (number)” value (mouse sperm [6]; upper layer group)?
Answer: 59

Question: What about the “XX chromosomes (%) of blastocyst embryos” value (mouse sperm [6]; upper layer group) of the same molecule?
Answer: 10%

Question: What about the “XX chromosomes (number) of blastocyst embryos” value (mouse sperm [6]; upper layer group) of the same molecule?
Answer: 6

Question: And the “XY chromosomes (%) of blastocyst embryos” value (mouse sperm [6]; upper layer group)?
Answer: 90%

Question: And the “XY chromosomes (number) of blastocyst embryos” value (mouse sperm [6]; upper layer group)?
Answer: 53

Question: What about the “2-cell (number), observed cleavages in 24 hours” value (mouse sperm [6]; upper layer group, 103 eggs) of the same molecule?
Answer: 81
